Assay results reported in patent publication US10246453B2, “Benzenesulfonamide compounds and their use as therapeutic agents” (Xenon Pharmaceuticals Inc., priority 2016, dated 2019).
Where a name gives a salt, the structure may show the parent alone.

What was measured:
[1] = biological target: NaV1.5 (Homo sapiens (Human), UniProt Q14524); assay: Sodium Influx Assay (Flux), NaV1.5; conditions: read-out: Flux NaV1.5 IC50; Trex HEK293 cells, ANG2 dye; arithmetic mean
[2] = biological target: T1, NaV1.6 (Homo sapiens (Human), UniProt Q9UQD0); assay: Electrophysiological Assay (EP), patch voltage clamp, NaV1.6; format: cell-based; conditions: HEK-293 cells, whole-cell patch clamp, inactivated state; arithmetic mean
T1 sequence (Q9UQD0 whole entry): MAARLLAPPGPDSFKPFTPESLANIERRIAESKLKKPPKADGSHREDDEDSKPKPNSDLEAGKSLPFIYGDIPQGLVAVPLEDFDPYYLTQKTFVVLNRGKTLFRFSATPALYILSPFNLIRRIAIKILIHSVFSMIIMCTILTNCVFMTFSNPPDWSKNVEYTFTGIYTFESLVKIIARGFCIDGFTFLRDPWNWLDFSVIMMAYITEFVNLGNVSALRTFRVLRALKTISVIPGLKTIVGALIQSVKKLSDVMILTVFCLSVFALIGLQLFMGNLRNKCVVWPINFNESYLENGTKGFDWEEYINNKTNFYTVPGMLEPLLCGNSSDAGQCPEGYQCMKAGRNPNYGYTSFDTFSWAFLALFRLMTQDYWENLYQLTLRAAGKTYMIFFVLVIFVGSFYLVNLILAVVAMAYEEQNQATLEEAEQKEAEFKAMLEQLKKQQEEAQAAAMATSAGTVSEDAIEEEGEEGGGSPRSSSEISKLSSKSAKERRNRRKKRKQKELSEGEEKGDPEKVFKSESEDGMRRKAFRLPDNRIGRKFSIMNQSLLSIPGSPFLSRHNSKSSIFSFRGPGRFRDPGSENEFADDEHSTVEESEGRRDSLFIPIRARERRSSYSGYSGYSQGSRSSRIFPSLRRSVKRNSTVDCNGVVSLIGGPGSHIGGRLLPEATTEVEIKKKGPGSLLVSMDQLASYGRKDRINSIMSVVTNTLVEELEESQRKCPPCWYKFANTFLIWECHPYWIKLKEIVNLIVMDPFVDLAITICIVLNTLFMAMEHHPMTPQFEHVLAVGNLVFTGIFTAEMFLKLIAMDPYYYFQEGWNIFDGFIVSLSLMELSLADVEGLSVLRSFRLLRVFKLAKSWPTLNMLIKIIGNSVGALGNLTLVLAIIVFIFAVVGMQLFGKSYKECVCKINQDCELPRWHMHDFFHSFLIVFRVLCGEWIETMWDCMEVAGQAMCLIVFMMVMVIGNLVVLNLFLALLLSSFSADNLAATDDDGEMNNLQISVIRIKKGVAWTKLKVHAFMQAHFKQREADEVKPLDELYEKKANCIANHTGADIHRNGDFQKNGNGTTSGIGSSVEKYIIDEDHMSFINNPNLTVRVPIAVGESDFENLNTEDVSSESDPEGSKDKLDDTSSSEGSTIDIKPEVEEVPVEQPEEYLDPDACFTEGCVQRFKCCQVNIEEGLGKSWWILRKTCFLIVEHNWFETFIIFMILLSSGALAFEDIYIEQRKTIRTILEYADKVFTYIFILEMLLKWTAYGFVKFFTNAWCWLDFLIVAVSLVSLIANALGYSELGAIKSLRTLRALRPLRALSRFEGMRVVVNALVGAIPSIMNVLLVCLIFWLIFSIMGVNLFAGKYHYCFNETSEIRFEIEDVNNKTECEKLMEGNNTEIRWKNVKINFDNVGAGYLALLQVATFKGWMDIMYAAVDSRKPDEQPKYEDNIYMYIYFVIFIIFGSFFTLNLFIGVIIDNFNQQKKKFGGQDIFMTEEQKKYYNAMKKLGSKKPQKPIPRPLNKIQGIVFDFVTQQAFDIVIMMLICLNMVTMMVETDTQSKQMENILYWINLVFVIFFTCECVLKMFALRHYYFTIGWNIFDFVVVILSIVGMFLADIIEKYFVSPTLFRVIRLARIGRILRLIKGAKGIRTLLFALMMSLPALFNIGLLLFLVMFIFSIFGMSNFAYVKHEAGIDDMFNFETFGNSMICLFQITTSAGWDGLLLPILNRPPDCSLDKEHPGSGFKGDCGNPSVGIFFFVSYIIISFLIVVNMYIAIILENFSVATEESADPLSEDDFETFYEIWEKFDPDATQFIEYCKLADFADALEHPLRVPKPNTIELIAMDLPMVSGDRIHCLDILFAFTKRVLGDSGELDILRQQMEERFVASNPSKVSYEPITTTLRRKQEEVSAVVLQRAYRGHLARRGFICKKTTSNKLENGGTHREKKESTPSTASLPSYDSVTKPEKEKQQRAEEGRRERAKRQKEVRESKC
Text: Patch voltage clamp electrophysiology allows for the direct measurement and quantification of block of voltage-gated sodium channels (Nay's), and allows the determination of the time-and voltage-dependence of block which has been interpreted as differential binding to the resting, open, and inactivated states of the sodium channel (Hille, B., Journal of General Physiology (1977), 69: 497-515).
NaV1.1, NaV1.5 and NaV1.6 cDNAs (NM_001165964 (SCN1A), NM_000335 (SCN5A) and NM_014191 (SCN8A), respectively) were stably expressed in HEK-293 cells.
(§1) Sodium currents were measured using the patch clamp technique in the whole-cell configuration using either a PatchXpress automated voltage clamp or manually using an Axopatch 200B (Axon Instruments) or Model 2400 (A-M systems) amplifier.
The manual voltage clamp protocol was as follows: Borosilicate glass micropipettes were fire-polished to a tip diameter yielding a resistance of 2-4 Mohms in the working solutions. […] In some studies, the external sodium was reduced by equimolar replacement with choline. Osmolarity in the CsF internal and NaCl external solutions was adjusted to 300 mOsm/kg and 310 mOsm/kg with glucose, respectively. All recordings were performed at ambient temperature in a bath chamber with a volume of 150 μL. Control sodium currents were measured in 0.5% DMSO. Controls and representative compounds of the invention were applied to the recording chamber through a 4-pinch or 8-pinch valve bath perfusion system manufactured by ALA Scientific Instruments.
Currents were recorded at 40 kHz sampling frequency, filtered at […], and stored using a Digidata-1322A analogue/digital interface with the pClamp software (Axon Instruments). Series resistance compensation was applied (60-80%). […] All statistics in this study are given as mean±SD.
The membrane potential was maintained at a voltage where inactivation of the channel is complete. The voltage is then stepped back to a very negative (Vhold=−150 mV) voltage for 20 ms and then a test pulse is applied to quantify the compound block. The 20 ms brief repolarization was long enough for compound-free channels to completely recover from fast inactivation, but the compound-bound channels recovered more slowly such that negligible recovery could occur during this interval. The percent decrease in sodium current following wash-on of compound was taken as the percent block of sodium channels.

[3] = biological target: T2, NaV1.1 (Homo sapiens (Human), UniProt P35498); assay: Electrophysiological Assay (EP), patch voltage clamp, NaV1.1; format: cell-based; conditions: HEK-293 cells, whole-cell patch clamp, inactivated state; arithmetic mean
Procedure: as §1
In some studies, the external sodium was reduced by equimolar replacement with choline. […] All recordings were performed at ambient temperature in a bath chamber with a volume of 150 μL. Control sodium currents were measured in 0.5% DMSO. Controls and representative compounds of the invention were applied to the recording chamber through a 4-pinch or 8-pinch valve bath perfusion system manufactured by ALA Scientific Instruments.
Series resistance compensation was applied (60-80%). […] All statistics in this study are given as mean±SD.
The membrane potential was maintained at a voltage where inactivation of the channel is complete. The voltage is then stepped back to a very negative (Vhold=−150 mV) voltage for 20 ms and then a test pulse is applied to quantify the compound block. […] The percent decrease in sodium current following wash-on of compound was taken as the percent block of sodium channels.

[4] = biological target: T2, NaV1.1; assay: Sodium Influx Assay (Flux), NaV1.1; format: cell-based; conditions: Trex HEK293 cells, ANG2 dye; arithmetic mean
[5] = biological target: T1, NaV1.6; assay: Sodium Influx Assay (Flux), NaV1.6; conditions: read-out: Flux NaV1.6 IC50; Trex HEK293 cells, ANG2 dye; arithmetic mean

Chain of NaV1.5 (Q14524 other isoform, or with tags, fused parts or gaps): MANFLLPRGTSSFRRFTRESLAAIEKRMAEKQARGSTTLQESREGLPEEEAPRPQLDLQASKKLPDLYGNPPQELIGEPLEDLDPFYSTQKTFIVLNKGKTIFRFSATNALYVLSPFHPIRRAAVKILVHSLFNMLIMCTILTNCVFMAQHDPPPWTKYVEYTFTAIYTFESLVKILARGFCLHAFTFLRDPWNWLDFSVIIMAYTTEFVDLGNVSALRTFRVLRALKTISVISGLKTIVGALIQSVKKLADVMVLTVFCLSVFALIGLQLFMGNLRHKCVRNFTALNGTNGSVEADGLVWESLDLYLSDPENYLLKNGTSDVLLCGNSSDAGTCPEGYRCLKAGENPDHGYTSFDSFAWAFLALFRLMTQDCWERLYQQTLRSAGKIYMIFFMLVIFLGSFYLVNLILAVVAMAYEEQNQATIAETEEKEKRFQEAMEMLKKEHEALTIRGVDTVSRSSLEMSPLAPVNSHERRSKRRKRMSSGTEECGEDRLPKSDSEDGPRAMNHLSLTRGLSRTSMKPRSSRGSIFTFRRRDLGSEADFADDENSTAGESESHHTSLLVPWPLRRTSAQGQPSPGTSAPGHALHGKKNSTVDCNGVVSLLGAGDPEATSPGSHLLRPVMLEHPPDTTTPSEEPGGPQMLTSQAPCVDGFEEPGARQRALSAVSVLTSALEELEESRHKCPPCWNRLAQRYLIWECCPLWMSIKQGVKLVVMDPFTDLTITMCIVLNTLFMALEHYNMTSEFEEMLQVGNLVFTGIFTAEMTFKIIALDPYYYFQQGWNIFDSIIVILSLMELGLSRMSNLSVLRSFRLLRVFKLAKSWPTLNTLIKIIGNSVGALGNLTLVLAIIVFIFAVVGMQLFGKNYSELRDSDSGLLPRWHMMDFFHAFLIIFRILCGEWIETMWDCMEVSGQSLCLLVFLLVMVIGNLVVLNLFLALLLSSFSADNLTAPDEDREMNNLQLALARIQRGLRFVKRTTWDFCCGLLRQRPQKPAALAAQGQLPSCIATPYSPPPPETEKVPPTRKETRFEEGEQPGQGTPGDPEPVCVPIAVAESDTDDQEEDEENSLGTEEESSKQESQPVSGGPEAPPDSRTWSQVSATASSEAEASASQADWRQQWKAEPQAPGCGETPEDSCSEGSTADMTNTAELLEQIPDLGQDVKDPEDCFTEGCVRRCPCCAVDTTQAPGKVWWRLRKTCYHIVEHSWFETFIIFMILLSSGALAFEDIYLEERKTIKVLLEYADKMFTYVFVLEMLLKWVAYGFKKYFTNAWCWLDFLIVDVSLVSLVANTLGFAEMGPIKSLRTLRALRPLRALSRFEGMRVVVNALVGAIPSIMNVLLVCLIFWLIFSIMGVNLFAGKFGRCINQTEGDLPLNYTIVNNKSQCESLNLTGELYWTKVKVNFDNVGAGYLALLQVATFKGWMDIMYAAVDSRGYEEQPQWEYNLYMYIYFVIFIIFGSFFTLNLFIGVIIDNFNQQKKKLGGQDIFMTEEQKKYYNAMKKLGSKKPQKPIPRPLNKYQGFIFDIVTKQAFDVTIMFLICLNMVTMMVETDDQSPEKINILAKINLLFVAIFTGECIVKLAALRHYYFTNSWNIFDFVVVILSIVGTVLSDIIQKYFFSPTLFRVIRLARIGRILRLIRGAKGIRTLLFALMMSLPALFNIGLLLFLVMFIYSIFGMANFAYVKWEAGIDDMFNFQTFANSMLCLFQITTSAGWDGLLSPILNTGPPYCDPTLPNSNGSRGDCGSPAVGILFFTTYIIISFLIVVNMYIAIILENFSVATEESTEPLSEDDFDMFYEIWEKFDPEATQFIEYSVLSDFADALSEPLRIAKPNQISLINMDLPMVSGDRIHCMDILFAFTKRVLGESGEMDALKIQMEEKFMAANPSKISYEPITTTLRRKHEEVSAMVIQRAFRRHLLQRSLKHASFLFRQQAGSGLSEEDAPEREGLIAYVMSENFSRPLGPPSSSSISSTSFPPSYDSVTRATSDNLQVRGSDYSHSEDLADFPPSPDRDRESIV

| Compound | IC50 [1] | IC50 [2] | IC50 [3] | IC50 [4] | IC50 [5] |
| --- | --- | --- | --- | --- | --- |
| CN(c1ccc(S(=O)(=O)Nc2cscn2)cc1Cl)[C@H]1CCN(Cc2ccccc2)C1 [Example 41, (S)-4-((1-benzylpyrrolidin-3-yl)(methyl)amino)-3-chloro-N-(thiazol-4-yl)benzenesulfonamide 2,2,2-trifluoroacetate] | 9010 nM | 748 nM | > 10000 nM | 6640 nM | 1040 nM |
| C[C@H](c1ccccc1)N1CC[C@H](N(C)c2ccc(S(=O)(=O)Nc3nccs3)cc2Cl)C1 [Example 44, 3-chloro-4-(methyl((S)-1-((R)-1-phenylethyl)pyrrolidin-3-yl)amino)-N-(thiazol-2-yl)benzenesulfonamide] | > 30000 nM | 89 nM | > 10000 nM | 10700 nM | 100 nM |
| C[C@H](c1ccccc1)N1CCC(Oc2ccc(S(=O)(=O)Nc3cscn3)cc2Cl)CC1 [Example 57, (R)-3-chloro-4-((1-(1-phenylethyl)piperidin-4-yl)oxy)-N-(thiazol-4-yl)benzenesulfonamide 2,2,2-trifluoroacetate] | 5250 nM | 268 nM | > 10000 nM | 13700 nM | 970 nM |
| CC(C)(c1ccccc1)N1CCC(Oc2ccc(S(=O)(=O)Nc3nccs3)cc2Cl)CC1 [Example 59, 3-chloro-4-((1-(2-phenylpropan-2-yl)piperidin-4-yl)oxy)-N-(thiazol-2-yl)benzenesulfonamide 2,2,2-trifluoroacetate] | 7440 nM | 92 nM | 9910 nM | 7440 nM | 255 nM |
| CC1(Nc2ccc(S(=O)(=O)Nc3nccs3)cc2Cl)CCN(Cc2ccccc2)C1 (centres unmarked) [Example 61, 4-((1-benzyl-3-methylpyrrolidin-3-yl)amino)-3-chloro-N-(thiazol-2-yl)benzenesulfonamide] | 6960 nM | 137 nM | > 10000 nM | 6370 nM | 176 nM |
| CN(c1ccc(S(=O)(=O)Nc2cscn2)cc1Cl)[C@H]1CCN(C(C)(C)c2ccccc2)C1 [Example 62, (S)-3-chloro-4-(methyl(1-(2-phenylpropan-2-yl)pyrrolidin-3-yl)amino)-N-(thiazol-4-yl)benzenesulfonamide] | 4530 nM | 150 nM | 6550 nM | 4240 nM | 536 nM |
| O=S(=O)(Nc1nccs1)c1ccc(OC2CCN(Cc3ccccn3)CC2)c(Cl)c1 [Example 65, 3-chloro-4-((1-(pyridin-2-ylmethyl)piperidin-4-yl)oxy)-N-(thiazol-2-yl)benzenesulfonamide] | 29700 nM | 839 nM | > 10000 nM | > 30000 nM | 552 nM |
| CN(c1ccc(S(=O)(=O)Nc2ncns2)cc1Cl)[C@@H]1CCN(Cc2ccccc2)C1 [Example 68, (R)-4-((1-benzylpyrrolidin-3-yl)(methyl)amino)-3-chloro-N-(1,2,4-thiadiazol-5-yl)benzenesulfonamide 2,2,2-trifluoroacetate] | > 30000 nM | 2920 nM | > 10000 nM | > 30000 nM | 1410 nM |
| O=S(=O)(Nc1nccs1)c1ccc(N[C@@H]2CCN(Cc3ccccc3)C2)c(Cl)c1 [Example 79, (R)-4-(1-benzylpyrrolidin-3-ylamino)-3-chloro-N-(thiazol-2-yl)benzenesulfonamide] | > 30000 nM | 138 nM | > 10000 nM | 6340 nM | 570 nM |
| CN(c1ccc(S(=O)(=O)Nc2nccs2)cc1Cl)[C@H]1CCN(Cc2ccccc2)C1 [Example 80, (S)-4-((1-benzylpyrrolidin-3-yl)(methyl)amino)-3-chloro-N-(thiazol-2-yl)benzenesulfonamide] | 29100 nM | 124 nM | > 10000 nM | 12200 nM | 378 nM |
| Cc1cccc(CN2CCC(Oc3ccc(S(=O)(=O)Nc4nccs4)cc3Cl)CC2)n1 [Example 82, 3-chloro-4-(1-((6-methylpyridin-2-yl)methyl)piperidin-4-yloxy)-N-(thiazol-2-yl)benzenesulfonamide] | > 30000 nM | 56 nM | > 10000 nM | > 30000 nM | 423 nM |
| Cc1cccc(CN2CC[C@H](N(C)c3ccc(S(=O)(=O)Nc4ncns4)cc3Cl)C2)c1 [Example 83, (S)-3-chloro-4-(methyl(1-(3-methylbenzyl)pyrrolidin-3-yl)amino)-N-(1,2,4-thiadiazol-5-yl)benzenesulfonamide] | > 30000 nM | 36 nM | > 10000 nM | > 30000 nM | 29 nM |
| O=S(=O)(Nc1nccs1)c1cc(Cl)c(N[C@H]2CCN(Cc3ccccc3)C2)cc1F [Example 87, (S)-4-(1-benzylpyrrolidin-3-ylamino)-5-chloro-2-fluoro-N-(thiazol-2-yl)benzenesulfonamide] | 14300 nM | 393 nM | 7280 nM | 5960 nM | 744 nM |
| Cc1cccc(CN2CC[C@@H](Nc3cc(F)c(S(=O)(=O)Nc4nccs4)cc3Cl)C2)c1 [Example 88, (R)-5-chloro-2-fluoro-4-(1-(3-methylbenzyl)pyrrolidin-3-ylamino)-N-(thiazol-2-yl)benzenesulfonamide] | 5910 nM | 39 nM | 1240 nM | 1590 nM | 381 nM |
| O=S(=O)(Nc1nccs1)c1cc(Cl)c(N[C@@H]2CCN(Cc3ccccc3)C2)cc1F [Example 89, (R)-4-(1-benzylpyrrolidin-3-ylamino)-5-chloro-2-fluoro-N-(thiazol-2-yl)benzenesulfonamide] | 12000 nM | 91 nM | 2870 nM | 2130 nM | 501 nM |
| Cc1cccc(CN2CCC(Oc3ccc(S(=O)(=O)Nc4nccs4)cc3Cl)CC2)c1 [Example 92, 3-chloro-4-(1-(3-methylbenzyl)piperidin-4-yloxy)-N-(thiazol-2-yl)benzenesulfonamide] | 3640 nM | 81 nM | 7530 nM | 6400 nM | 203 nM |
| O=S(=O)(Nc1ncns1)c1ccc(OC2CCN(Cc3ccccc3)CC2)c(Cl)c1 [Example 100, 4-(1-benzylpiperidin-4-yloxy)-3-chloro-N-(1,2,4-thiadiazol-5-yl)benzenesulfonamide 2,2,2-trifluoroacetate] | > 30000 nM | 164 nM | > 10000 nM | 30000 nM | 190 nM |
| CN(c1cc(F)c(S(=O)(=O)Nc2cscn2)c(F)c1Cl)[C@H]1CCN(Cc2ccccc2)C1 [Example 102, (S)-4-((1-benzylpyrrolidin-3-yl)(methyl)amino)-3-chloro-2,6-difluoro-N-(thiazol-4-yl)benzenesulfonamide formate] | > 30000 nM | 152 nM | > 10000 nM | > 30000 nM | 703 nM |
| Cc1cccc(CN2CC[C@H](N(C)c3cc(F)c(S(=O)(=O)Nc4cscn4)c(F)c3C)C2)n1 [Example 104, (S)-2,6-difluoro-3-methyl-4-(methyl(1-((6-methylpyridin-2-yl)methyl)pyrrolidin-3-yl)amino)-N-(thiazol-4-yl)benzenesulfonamide formate] | > 30000 nM | 11 nM | > 10000 nM | > 30000 nM | 26 nM |
